How the values were obtained:
COVID-19 patients = details: cited from earlier work
hiPSC-CMs = experiment: Multi-electrode array (MEA) field potentials of hiPSC-CMs cultured in 2-D or on aligned coaxial patches (3-D) after cardiac drugs; format: cell-based, human; details: for beating frequency (beats per minute): change after treatment
[1] = test system: hiPSC-CMs cultured on aligned coaxial patches; experiment: Particle image velocimetry (PIV) optical contractility of aligned coaxial cardiac patch; format: cell-based, human; details: 100 nM, patches at two weeks of culture
Procedure: Cross-correlation (“PIV”) analysis of images. Cell contractility kinetics were assessed using the optical flow/PIV method. Briefly, a motion pattern (velocity field) captured on a pair of images was calculated by dividing the first image into overlapping tiles, each 64 pixels wide. The second image was then scanned pixel-by-pixel, by shifting an equally sized (64×64 pixels) window. The most similar (by Euclidean distance) tile on the second image was then assumed to be the location where the pattern in the first image moved. The resulting displacement vectors characterizing each image tile were then interpolated and denoised by a thin-plate spline fit, yielding a coarse displacement field. The coarse estimate was used to construct a second, higher resolution displacement field. […] Fourier spectra were calculated from D(t) beat patterns using the discrete Fourier transform algorithm. Power densities were calculated as the magnitudes of the squared Fourier spectra, and indicate periodicity within the signal in the form of peaks at the corresponding frequencies. When the analyzed signal is not a pure sine wave, harmonics are expected to appear at integer multiples of the fundamental frequency f(2f, 3f, etc). […]

fertilized chicken eggs = experiment: In ovo CAM assay; format: in vivo; details: in Geltrex carrier, 5 days
Procedure: The angiogenic potential of bFGF loaded PDA-NPs and DPDA-NPs was evaluated by using fertilized chicken eggs. The eggs were incubated in a hatching incubator for 5 days, following the incubation the viable eggs were selected and grouped as follows (bFGF+Geltrex, bFGF-PDA-NPs+Geltrex, bFGF-DPDA-NPs+Geltrex and only Geltrex). A window was made on the eggshell and a sterilized nylon mesh was placed inside the egg. The test samples were loaded on the nylon mesh and the window was covered by placing a 35 mm plate and secured by using tape. The eggs were further incubated for 5 days, following which it was carefully dissected to retrieve the nylon mesh and imaged using a stereomicroscope (Leica).

For `CCN(CCO)CCCC(C)Nc1ccnc2cc(Cl)ccc12` (stereo not shown) [HCQ, hydroxychloroquine], the cell death (hiCMs) was “increased”, the cell viability (hiCMs) was “decreased” and the “electrophysiological function (MEA and patch clamp)” value (hiCMs) was “considerable changes”. The QT interval (COVID-19 patients; COVID-19 / SARS-CoV-2 patients) was “QT prolongation”, the “association between treatment and consequent intubation or death” value (COVID-19 patients; New York study (Geleris et al)) was “no significant association” and the recovery of patients (COVID-19 patients; randomized clinical trial, administration for 5 days) was “improved recovery”.

For `CC(C)NCC(O)c1ccc(O)c(O)c1` (stereo not shown) [ISO, Isoproterenol], the beat period (hiPSC-CMs; 2-D culture, 10 nM ISO) was 0.67 ± 0.04 s, the beat period (hiPSC-CMs; 2-D culture, 100 nM ISO) was 0.66 ± 0.03 s and the beat period (hiPSC-CMs; 3-D culture (aligned coaxial patch), 10 nM ISO) was 0.8 ± 0.15 s. The beat period (hiPSC-CMs; 3-D culture (aligned coaxial patch), 100 nM ISO) was 0.66 ± 0.1 s, the “Fridericia-corrected field potential duration (FPDc), change vs baseline” value (hiPSC-CMs; both 2-D and 3-D cultures) was “dose-dependent shortening of the QT interval” and the “beat period, change vs baseline” value (hiPSC-CMs; both 2-D and 3-D cultures) was “significant dose-dependent decrease”. For the same compound, the “beating frequency (beats per minute)” value (hiPSC-CMs; both 2-D and 3-D cultures) was “increase”, the “spontaneous beat amplitude (beat patterns)” value [1] was “increase” and the “average frequency of spontaneous beating” value ([1]; mean +- SEM, untreated 0.136 Hz) was 1.497+−0.0394 Hz.

In the case of `COc1ccc(CCN(C)CCCC(C#N)(c2ccc(OC)c(OC)c2)C(C)C)cc1OC` (stereo not shown) [Verapamil], the “FPDc, change with dose” value (hiPSC-CMs; 3-D culture only, 0.1 μM and 0.3 μM) is reported as “dose-dependent decrease”, the “beat period, change vs baseline” value (hiPSC-CMs; both 2-D and 3-D cultures) is reported as “significant fold decrease” and the “beating frequency (beats per minute)” value (hiPSC-CMs; both 2-D and 3-D cultures) is reported as “increase”.

In the case of bFGF: basic fibroblast growth factor, the “new blood vessel formation on nylon mesh” value (fertilized chicken eggs) is reported as “remarkable angiogenesis”.
